# Experimental data reported in US20140377340A1, “HLA-DR BINDING PEPTIDES AND THEIR USES” (priority 2007, published 2014).
# Ends that are not written are not given here.
# What was measured:
# purified HLA DRB1*1101 = target: T1, purified HLA DRB1*1101 (Homo sapiens, UniProt P01903+P01911, A100R/A169T/A87E/I96F/K41T/L162R/M171V/P40S/Q125H/Q178H/Q39Y/Q99D/R42S/S66Y/T262R/V115G/W38E); test: HLA-DR radioligand binding inhibition assay, DRB1*1101; conditions: IC50 nM purified HLA DRB1 *1101, purified HLA DRB1*1101
# T1 construct: purified from EBV transformed homozygous cell lines or single MHC allele transfected 721.221, C1R, or fibroblast lines; made in house
# T1 sequence (P01903 26-254, other chains not shown): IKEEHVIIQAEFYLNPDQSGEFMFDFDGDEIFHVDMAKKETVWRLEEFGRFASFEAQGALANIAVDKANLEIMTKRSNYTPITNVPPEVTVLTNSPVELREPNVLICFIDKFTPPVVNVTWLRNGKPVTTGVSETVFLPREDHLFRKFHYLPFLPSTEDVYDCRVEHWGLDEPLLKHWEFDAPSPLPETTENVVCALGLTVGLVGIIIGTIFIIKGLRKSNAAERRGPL
# In short: (§1)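 Competition binding: 1-10 nM radiolabeled peptide + 1 μM–1 nM HLA-DR, protease inhibitor cocktail, 2 d, RT or 37° C., pH 4–7. LB3.1 capture 3 h in 0.05% NP40/PBS; scintillation counting.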
# purified HLA DRB1*0401 = target: T2, purified HLA DRB1*0401 (Homo sapiens, UniProt P01903+P01911, A100K/A169T/F76Y/I96L/K127E/L162R/M171V/N62H/P40V/Q125Y/R42H/S133A/S149N/S66Y/V115G/V209L/W38E); test: HLA-DR radioligand binding inhibition assay, DRB1*0401; conditions: IC50 nM purified HLA DRB1 *0401, purified HLA DRB1*0401
# T2 construct: purified from EBV transformed homozygous cell lines or single MHC allele transfected 721.221, C1R, or fibroblast lines; made in house
# In short: as §1
# purified HLA DRB1*1501 = target: T3, purified HLA DRB1*1501 (Homo sapiens, UniProt P01903+P01911); test: HLA-DR radioligand binding inhibition assay, DRB1*1501
# T3 construct: purified from EBV transformed homozygous cell lines or single MHC allele transfected 721.221, C1R, or fibroblast lines; made in house
# In short: as §1
# purified HLA DRB1*0301 = target: T4, purified HLA DRB1*0301 (Homo sapiens, UniProt P01903+P01911, A100K/A102G/A103R/A169T/F55Y/I96L/K41T/L162R/M171V/P40S/Q125H/Q178H/Q39Y/R42S/S66N/T106N/T262R/W38E/Y61H); test: HLA-DR radioligand binding inhibition assay, DRB1*0301; conditions: IC50 nM purified HLA DRB1 *0301, purified HLA DRB1*0301
# T4 construct: purified from EBV transformed homozygous cell lines or single MHC allele transfected 721.221, C1R, or fibroblast lines; made in house
# Experimental: (§2) Instead, wells of an opaque white 96-well Optiplate (Packard) are coated with 3 μg (100 μl@ 30 μg/ml) of HLA-specific antibody (Ab) that “capture” complexes of radiolabeled MHC and unlabeled peptide transferred from the molecular binding assay plate in 100 μl of 0.05% NP40/PBS. After a 3-hour incubation period, the supernatant is decanted and scintillation fluid (Microscint 20) added. Captured complexes are then measured on a microplate scintillation and luminescence counter (TopCount NXTTM; Packard).
# (§3) HLA-DR purification. Fifteen distinct HLA-DR molecules were used in quantitative assays to measure the binding of peptides to solubilized HLA-DR molecules. […] Briefly, columns of inactivated Sepharose CL4B and Protein A Sepharose were used as pre-columns. HLA-DR molecules were captured by passage of lysates over LB3.1 monoclonal antibody (anti-HLA-DRA) columns. Antibody columns were washed with 10 mM Tris-HCL, pH8.0 with 1% (v/v) NP-40, followed by PBS containing 0.4% (w/v) n-octylglucoside.
# (§4) Briefly, 1-10 nM of radiolabeled peptide was co-incubated for 2 days at either room temperature or 37° C. with 1 μM to 1 nM purified HLA-DR molecules in the presence of a cocktail of protease inhibitors. Assays were performed at various pH conditions, ranging from pH 4 to pH 7. […] After incubation, the percentage of HLA-DR-bound radioactivity is determined by capturing HLA-DR/peptide complexes on Optiplates (Packard Instruments, Meriden, Conn.) coated with the LB3.1 antibody and determining bound counts per minute using the TopCount microscintillation counter (Packard Instruments).
# purified HLA DRB1*1302 = target: T5, purified HLA DRB1*1302 (Homo sapiens, UniProt P01903+P01911, A100E/A169T/K41T/L162R/M171V/P40S/Q125H/Q178H/Q39Y/Q99D/R42S/S66N/T262R/V115G/W38E/Y61H); test: HLA-DR radioligand binding inhibition assay, DRB1*1302
# T5 construct: purified from EBV transformed homozygous cell lines or single MHC allele transfected 721.221, C1R, or fibroblast lines; made in house
# In short: as §1
# purified HLA DRB1*0101 = target: T6, purified HLA DRB1*0101 (Homo sapiens, UniProt P01903+P01911, A100R/D57E/F55L/F60I/F76Y/I96L/L162R/M171V/P40L/Q125E/R42F/V115G/Y59C); test: HLA-DR radioligand binding inhibition assay, DRB1*0101; conditions: IC50 nM purified HLA DRB1 *0101, purified HLA DRB1*0101
# T6 construct: purified from EBV transformed homozygous cell lines or single MHC allele transfected 721.221, C1R, or fibroblast lines; made in house
# In short: as §1
# purified HLA DRB1*0701 = target: T7, purified HLA DRB1*0701 (Homo sapiens, UniProt P01903+P01911, A100R/A102G/A103Q/D57E/D86V/E43K/F76Y/K127E/L162R/M171V/P40G/Q125H/Q99D/R33Q/R42Y/R54Q/S133A/S66F/T210M/V115G/Y107V/Y59L/Y89S); test: HLA-DR radioligand binding inhibition assay, DRB1*0701; conditions: IC50 nM purified HLA DRB1 *0701, purified HLA DRB1*0701
# T7 construct: purified from EBV transformed homozygous cell lines or single MHC allele transfected 721.221, C1R, or fibroblast lines; made in house
# In short: as §1
# purified HLA DRB4*0101 = target: T8, purified HLA DRB4*0101 (Homo sapiens, UniProt P01903+P13762, G164S); test: HLA-DR radioligand binding inhibition assay, DRB4*0101; conditions: IC50 nM purified HLA DRB4 *0101, purified HLA DRB4*0101
# T8 construct: purified from EBV transformed homozygous cell lines or single MHC allele transfected 721.221, C1R, or fibroblast lines; made in house
# Experimental: as §2, §3, §4
# purified HLA DRB1*0405 = target: T9, purified HLA DRB1*0405 (Homo sapiens, UniProt P01903+P01911, A100R/A169T/D86S/F76Y/I96L/K127E/L162R/M171V/N62H/P40V/Q125Y/R42H/S133A/S149N/S66Y/V115G/V209L/W38E); test: HLA-DR radioligand binding inhibition assay, DRB1*0405; conditions: IC50 nM purified HLA DRB1 *0405, purified HLA DRB1*0405
# T9 construct: purified from EBV transformed homozygous cell lines or single MHC allele transfected 721.221, C1R, or fibroblast lines; made in house
# In short: as §1
# purified HLA DRB5*0101 = target: T10, purified HLA DRB5*0101 (Homo sapiens, UniProt P01903+Q30154); test: HLA-DR radioligand binding inhibition assay, DRB5*0101; conditions: IC50 nM purified HLA DRB5 *0101, purified HLA DRB5*0101
# T10 construct: purified from EBV transformed homozygous cell lines or single MHC allele transfected 721.221, C1R, or fibroblast lines; made in house
# In short: as §1
# purified HLA DRB1*1201 = target: T11, purified HLA DRB1*1201 (Homo sapiens, UniProt P01903+P01911, A100R/A169T/D57E/D86V/F55L/H45Y/K41T/L162R/M171V/P40S/Q125H/Q178H/Q39Y/Q99D/R42G/S66L/T262R/V114A/V67L/W38E/Y59H/Y61H/Y89S); test: HLA-DR radioligand binding inhibition assay, DRB1*1201
# T11 construct: purified from EBV transformed homozygous cell lines or single MHC allele transfected 721.221, C1R, or fibroblast lines; made in house
# Experimental: as §2
# as §3, with “n-octylglucoside. […] The pH was reduced to 8.0 and the eluates were concentrated by centrifugation in Centriprep 30 concentrators at 2000 rpm (Amicon, Beverly, Mass.).” for “n-octylglucoside.”
# as §4, with “Instruments). […] Competitor peptides are tested in 2-4 complete, independent experiments, at concentrations ranging from […].” for “Instruments).”
# purified HLA DRB1*0404 = target: T12, purified HLA DRB1*0404 (Homo sapiens, UniProt P01903+P01911, A100R/A169T/F76Y/I96L/K127E/L162R/M171V/N62H/P40V/Q125Y/R42H/S133A/S149N/S66Y/V209L/W38E); test: HLA-DR radioligand binding inhibition assay, DRB1*0404; conditions: IC50 nM purified HLA DRB1 *0404, purified HLA DRB1*0404
# T12 construct: purified from EBV transformed homozygous cell lines or single MHC allele transfected 721.221, C1R, or fibroblast lines; made in house
# Experimental: as §2, §3, §4
IC50 (purified HLA DRB1*1101),IC50 (purified HLA DRB1*0401),IC50 (purified HLA DRB1*1501),IC50 (purified HLA DRB1*0301),IC50 (purified HLA DRB1*1302),IC50 (purified HLA DRB1*0101),IC50 (purified HLA DRB1*0701),IC50 (purified HLA DRB4*0101),IC50 (purified HLA DRB1*0405),IC50 (purified HLA DRB5*0101),IC50 (purified HLA DRB1*1201),IC50 (purified HLA DRB1*0404),Molecule
9130 nM,640 nM,450 nM,29 nM,4 nM,210 nM,,,,,,,CC(C)C[C@H](NC(=O)[C@H](C)NC(=O)[C@H](Cc1ccc(O)cc1)NC(=O)[C@H](CC(N)=O)NC(=O)[C@H](CC(=O)O)NC(=O)[C@H](CCC(=O)O)NC(=O)[C@H](Cc1ccccc1)NC(=O)[C@H](CC(C)C)NC(=O)[C@H](CCC(N)=O)NC(=O)[C@@H](NC(=O)CN)[C@@H](C)O)C(=O)N[C@@H](C)C(=O)N[C@H](C(=O)N[C@@H](CC(C)C)C(=O)N[C@@H](CC(=O)O)C(=O)O)C(C)C [Peptide 9019.0001]
756 nM,605 nM,8180 nM,151 nM,4750 nM,8210 nM,> 20000 nM,4030 nM,12900 nM,> 20000 nM,,,CSCC[C@H](NC(=O)[C@H](CC(N)=O)NC(=O)[C@H](CCC(N)=O)NC(=O)[C@H](CCC(N)=O)NC(=O)[C@H](C)NC(=O)[C@H](CCC(N)=O)NC(=O)[C@H](CCCNC(=N)N)NC(=O)[C@H](CC(C)C)NC(=O)[C@H](CO)NC(=O)[C@H](CO)NC(=O)[C@H](CCC(=O)O)NC(=O)[C@H](CC(C)C)NC(=O)[C@H](CC(C)C)NC(=O)[C@H](C)NC(=O)[C@@H](N)CCC(=O)O)C(=O)O [Peptide 9019.0014]
,,,,9.9 nM,1.9 nM,,,,28 nM,47 nM,,CC[C@H](C)[C@H](NC(=O)[C@H](CCCNC(=N)N)NC(=O)CNC(=O)[C@H](CCCNC(=N)N)NC(=O)[C@@H](NC(=O)[C@@H](NC(=O)[C@H](CCC(N)=O)NC(=O)[C@H](CC(C)C)NC(=O)[C@@H](N)CC(N)=O)C(C)C)[C@@H](C)CC)C(=O)N[C@@H](CC(C)C)C(=O)N[C@@H](Cc1c[nH]cn1)C(=O)N[C@@H](CC(N)=O)C(=O)NCC(=O)N[C@@H](C)C(=O)N[C@@H](Cc1ccc(O)cc1)C(=O)O [Peptide 9019.0053]
6310 nM,143 nM,50 nM,,,93 nM,3100 nM,22 nM,409 nM,> 20000 nM,,110 nM,CC[C@H](C)[C@H](NC(=O)CNC(=O)[C@H](CC(C)C)NC(=O)CNC(=O)[C@H](CCC(N)=O)NC(=O)[C@H](CC(C)C)NC(=O)[C@@H](NC(=O)[C@H](CC(C)C)NC(=O)[C@@H](N)CO)[C@@H](C)O)C(=O)N[C@@H](CO)C(=O)N[C@@H](Cc1c[nH]c2ccccc12)C(=O)N[C@@H](CC(C)C)C(=O)NCC(=O)N[C@@H](CC(C)C)C(=O)N[C@@H](CCCNC(=N)N)C(=O)O [Peptide 9019.0055]
5140 nM,450 nM,6000 nM,,443 nM,,941 nM,3110 nM,447 nM,> 20000 nM,,3000 nM,CC[C@H](C)[C@H](N)C(=O)N[C@@H](CO)C(=O)N[C@@H](C)C(=O)N[C@H](C(=O)N[C@H](C(=O)NCC(=O)N[C@H](C(=O)N[C@@H](CC(C)C)C(=O)N[C@@H](CC(C)C)C(=O)N[C@H](C(=O)N[C@H](C(=O)N[C@H](C(=O)N[C@@H](CC(C)C)C(=O)NCC(=O)N[C@H](C(=O)O)C(C)C)C(C)C)C(C)C)C(C)C)[C@@H](C)CC)C(C)C)C(C)C [Peptide 9019.0067]
> 20000 nM,181 nM,8290 nM,,,682 nM,31 nM,2700 nM,942 nM,> 20000 nM,,680 nM,CC[C@H](C)[C@H](N)C(=O)N[C@@H](CC(N)=O)C(=O)NCC(=O)N[C@H](C(=O)N1CCC[C@H]1C(=O)N[C@@H](CCC(N)=O)C(=O)N[C@@H](CCC(N)=O)C(=O)N[C@@H](Cc1c[nH]cn1)C(=O)N[C@H](C(=O)N[C@@H](CCC(N)=O)C(=O)N[C@H](C(=O)N[C@@H](CC(C)C)C(=O)N[C@@H](Cc1ccccc1)C(=O)N[C@H](C(=O)N[C@@H](C)C(=O)O)[C@@H](C)CC)C(C)C)[C@@H](C)O)[C@@H](C)CC [Peptide 9019.0139]
,,,3380 nM,,,,,,,,,EELLQMELLLVNKLK [Peptide 9019.0010]
,,,> 20000 nM,,,,,,,,,TMRLPDERGPLEHLY [Peptide 9019.0021]
,,,6420 nM,,,,,,,,,WNLAAMTPHDFIEHF [Peptide 9019.0013]
